Assays:
Details in all cases: exposure time: 90 min
1309 [1] = donor line of iPSC-derived cardiomyocytes; experiment: POD (EC05) for decrease in beat frequency (negative chronotrope) vs vehicle; higher = less potent (higher point of departure)
Procedure, shortened: (§1)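 Cardiomyocytes from human iPSCs of 16 donors spent 14 days in gelatin-coated 384-well plates before 2 h of fluorescent Ca2+ dye loading. They were then held for 90 min at 37 °C at final concentrations of 0.1, 1, 10 and 100 µM containing 0.5% DMSO, and Ca2+ flux was read on a FLIPR Tetra (8 frames/s, 100 s) before and after. Donor-level points of departure were taken from hierarchical Bayesian Hill fits to vehicle-normalised beat frequency, decay-to-rise ratio or peak frequency. For these, a 5% change was the threshold, or a 95% loss for peak frequency.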

1392 = donor line of iPSC-derived cardiomyocytes; experiment: as above
Procedure, shortened: as §1

1516 [2] = donor line of iPSC-derived cardiomyocytes; experiment: as above
Procedure, shortened: as §1

1535 = donor line of iPSC-derived cardiomyocytes; experiment: as above
Procedure, shortened: as §1

1565 [3] = donor line of iPSC-derived cardiomyocytes; experiment: as above
Procedure, shortened: as §1

20032 [4] = donor line of iPSC-derived cardiomyocytes; experiment: as above
Procedure, shortened: as §1

20084 [5] = donor line of iPSC-derived cardiomyocytes; experiment: as above
Procedure, shortened: as §1

30145 = donor line of iPSC-derived cardiomyocytes; experiment: as above
Procedure, shortened: as §1

1083 = donor line of iPSC-derived cardiomyocytes; experiment: POD (EC05) for increase in beat frequency (positive chronotrope) vs vehicle; higher = less potent (higher point of departure)
Method: (§2)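 Human iPSC-derived cardiomyocytes from 16 donors were exposed for 90 min at 37 °C to each PFAS at 0.1, 1, 10 and 100 µM in 0.5% DMSO, 384-well plates. Kinetic Ca2+ flux (FLIPR) and Hoechst nuclei counts were normalised to vehicle wells and fitted with a hierarchical Bayesian Hill model to give donor-specific PODs: EC05 for beat-rate increase or decrease and for decay-to-rise ratio increase (QT proxy), EC95 for peak-frequency loss (asystole), EC10 for total cell number loss. 0.03 µM is the lower bound.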

1118 = donor line of iPSC-derived cardiomyocytes; experiment: as above
Method: as §2

11235 = donor line of iPSC-derived cardiomyocytes; experiment: as above
Method: as §2

1309 [6] = experiment: as above
Method: as §2

1434 = donor line of iPSC-derived cardiomyocytes; experiment: as above
Method: as §2

1516 [7] = experiment: as above
Method: as §2

1518 = donor line of iPSC-derived cardiomyocytes; experiment: as above
Method: as §2

1531 = donor line of iPSC-derived cardiomyocytes; experiment: as above
Method: as §2

1565 [8] = experiment: as above
Method: as §2

20032 [9] = experiment: as above
Method: as §2

20084 [10] = experiment: as above
Method: as §2

30171 = donor line of iPSC-derived cardiomyocytes; experiment: as above
Method: as §2

SMILES	POD vs vehicle 1309 [1]	POD vs vehicle 1392	POD vs vehicle 1516 [2]	POD vs vehicle 1535	POD vs vehicle 1565 [3]	POD vs vehicle 20032 [4]	POD vs vehicle 20084 [5]	POD vs vehicle 30145	POD vs vehicle 1083	POD vs vehicle 1118	POD vs vehicle 11235	POD vs vehicle 1309 [6]	POD vs vehicle 1434	POD vs vehicle 1516 [7]	POD vs vehicle 1518	POD vs vehicle 1531	POD vs vehicle 1565 [8]	POD vs vehicle 20032 [9]	POD vs vehicle 20084 [10]	POD vs vehicle 30171
NC(=O)C(F)(F)C(F)(F)C(F)(F)C(F)F	> 100 µM	> 100 µM	> 100 µM	> 100 µM	> 100 µM	> 100 µM	> 100 µM	> 100 µM	> 100 µM	> 100 µM	> 100 µM	> 100 µM	> 100 µM	> 100 µM	> 100 µM	> 100 µM	> 100 µM	> 100 µM	> 100 µM	> 100 µM
OCC(O)CC(F)(F)C(F)(F)C(F)(F)C(F)(F)C(F)(F)C(F)(F)C(F)(F)C(F)(F)F (centres undefined) [1-(Perfluorofluorooctyl)propane-2,3-diol]	> 100 µM	> 100 µM	> 100 µM	> 100 µM	> 100 µM	> 100 µM	> 100 µM	> 100 µM	> 100 µM	3.1 µM	0.231 µM	0.394 µM	0.19 µM	0.516 µM	> 100 µM	> 100 µM	> 100 µM	> 100 µM	> 100 µM	0.136 µM
CC(O)C(F)(F)C(F)(F)F (centres undefined) [1-Pentafluoroethylethanol]	> 100 µM	> 100 µM	> 100 µM	> 100 µM	> 100 µM	> 100 µM	> 100 µM	> 100 µM	> 100 µM	> 100 µM	> 100 µM	> 100 µM	> 100 µM	> 100 µM	> 100 µM	> 100 µM	> 100 µM	> 100 µM	> 100 µM	> 100 µM
OCC(F)(F)C(F)(F)C(F)(F)C(F)F [1H,1H,5H-Perfluoropentanol]	> 100 µM	> 100 µM	> 100 µM	> 100 µM	> 100 µM	> 100 µM	35.1 µM	> 100 µM	> 100 µM	> 100 µM	> 100 µM	> 100 µM	> 100 µM	> 100 µM	> 100 µM	> 100 µM	> 100 µM	> 100 µM	> 100 µM	> 100 µM
O=S(=O)(OCC(F)(F)F)C(F)(F)C(F)(F)C(F)(F)C(F)(F)F [2,2,2-Trifluoroethyl_perfluorobutanesulfonate]	> 100 µM	> 100 µM	> 100 µM	> 100 µM	> 100 µM	> 100 µM	> 100 µM	> 100 µM	> 100 µM	> 100 µM	> 100 µM	> 100 µM	> 100 µM	> 100 µM	> 100 µM	> 100 µM	> 100 µM	> 100 µM	> 100 µM	> 100 µM
O=C(O)C(F)(F)C(F)(F)C(F)F [2,2,3,3,4,4-Hexafluorobutanoic_acid]	> 100 µM	> 100 µM	> 100 µM	> 100 µM	> 100 µM	> 100 µM	> 100 µM	> 100 µM		> 100 µM	> 100 µM	> 100 µM	> 100 µM	> 100 µM	> 100 µM	> 100 µM	> 100 µM	> 100 µM	> 100 µM	> 100 µM
NC(O)(C(F)(F)F)C(F)(F)F [2-Aminohexafluoropropan-2-ol]	> 100 µM	> 100 µM	22.6 µM	83.8 µM	> 100 µM	80.9 µM	> 100 µM	> 100 µM	> 100 µM	> 100 µM	> 100 µM	> 100 µM	> 100 µM	> 100 µM	> 100 µM	> 100 µM	> 100 µM	> 100 µM	> 100 µM	> 100 µM
O=C(O)CCC(F)(F)C(F)(F)C(F)(F)C(F)(F)C(F)(F)F [2H,2H,3H,3H-Perfluorooctanoic_acid]	37.7 µM	20.4 µM	21.1 µM	75.1 µM	> 100 µM	29.8 µM	20 µM	22.2 µM	> 100 µM	> 100 µM	> 100 µM	> 100 µM	> 100 µM	> 100 µM	> 100 µM	> 100 µM	> 100 µM	> 100 µM	> 100 µM	> 100 µM
O=C(O)C=C(C(F)(F)F)C(F)(F)F [3,3-Bis(trifluoromethyl)-2-propenoic_acid]	> 100 µM	> 100 µM	> 100 µM	> 100 µM	> 100 µM	> 100 µM	> 100 µM	> 100 µM	> 100 µM	> 100 µM	> 100 µM	> 100 µM	> 100 µM	> 100 µM	> 100 µM	> 100 µM	> 100 µM	> 100 µM	> 100 µM	> 100 µM
O=C(O)C=CC(F)(C(F)(F)F)C(F)(F)F [3-(Perfluoroisopropyl)-2-propenoic_acid]	> 100 µM	> 100 µM	> 100 µM	> 100 µM	> 100 µM	> 100 µM	> 100 µM	> 100 µM	> 100 µM	> 100 µM	> 100 µM	> 100 µM	> 100 µM	> 100 µM	> 100 µM	> 100 µM	> 100 µM	> 100 µM	> 100 µM	> 100 µM

— the supplement of paper PMC11368000
